Laboratory results published in ChEMBL document CHEMBL4765389, “Antimicrobial and anti-inflammatory activities of short dodecapeptides derived from duck cathelicidin: Plausible mechanism of bactericidal action and endotoxin neutralization” (Eur J Med Chem, 2020).
The source made the active and inactive calls. The calls are words filed in the database; no cut-off is given here.

Legend:
Escherichia coli [1] = experiment: Bacteriostatic activity against Escherichia coli KCTC 1682 assessed as reduction in colony forming unit at 0.5 times MIC measured for 24 hrs by time kill assay; format: functional
Erythrocyte [2] = experiment: Hemolytic activity in sheep RBC assessed as reduction in hemoglobin at 256 uM incubated for 1 hr; format: ADME, cell-based, Ovis aries
[3] = Cytotoxicity against mouse RAW264.7 cells assessed as reduction in cell viability at 20 uM incubated for 24 hrs by MTT assay; format: cell-based; settings: read-out: INH
[4] = Cytotoxicity against mouse NIH/3T3 cells assessed as reduction in cell viability at 20 uM incubated for 24 hrs by MTT assay; format: cell-based, NIH3T3; settings: NIH/3T3 cells, read-out: INH
Staphylococcus aureus [5] = experiment: Antibacterial activity against Staphylococcus aureus KCTC 1621 assessed as reduction in bacterial growth incubated for 24 hrs by CLSI based broth dilution method; format: functional; settings: read-out: MIC100
[6] = test system: Staphylococcus epidermidis; experiment: Antibacterial activity against Staphylococcus epidermidis KCTC 1917 assessed as reduction in bacterial growth incubated for 24 hrs by CLSI based broth dilution method; format: functional; settings: read-out: MIC100
Bacillus subtilis = experiment: Antibacterial activity against Bacillus subtilis KCTC 3068 assessed as reduction in bacterial growth incubated for 24 hrs by CLSI based broth dilution method; format: functional; settings: read-out: MIC100
Staphylococcus aureus [7] = experiment: Antibacterial activity against methicillin-resistant Staphylococcus aureus CCARM 3089 assessed as reduction in bacterial growth incubated for 24 hrs by CLSI based broth dilution method; format: functional; settings: read-out: MIC100
Staphylococcus aureus [8] = experiment: Antibacterial activity against methicillin-resistant Staphylococcus aureus CCARM 3090 assessed as reduction in bacterial growth incubated for 24 hrs by CLSI based broth dilution method; format: functional; settings: read-out: MIC100
Staphylococcus aureus [9] = experiment: Antibacterial activity against methicillin-resistant Staphylococcus aureus CCARM 3095 assessed as reduction in bacterial growth incubated for 24 hrs by CLSI based broth dilution method; format: functional; settings: read-out: MIC100
Enterococcus faecium = experiment: Antibacterial activity against vancomycin-resistant Enterococcus faecium ATCC 51559 assessed as reduction in bacterial growth incubated for 24 hrs by CLSI based broth dilution method; format: functional; settings: read-out: MIC100
Escherichia coli [10] = experiment: Antibacterial activity against Escherichia coli KCTC 1682 assessed as reduction in bacterial growth incubated for 24 hrs by CLSI based broth dilution method; format: functional; settings: read-out: MIC100
Pseudomonas aeruginosa = experiment: Antibacterial activity against Pseudomonas aeruginosa KCTC 1637 assessed as reduction in bacterial growth incubated for 24 hrs by CLSI based broth dilution method; format: functional; settings: read-out: MIC100
Salmonella typhimurium = experiment: Antibacterial activity against Salmonella typhimurium KCTC 1926 assessed as reduction in bacterial growth incubated for 24 hrs by CLSI based broth dilution method; format: functional, Salmonella enterica subsp. enterica serovar Typhimurium; settings: Salmonella enterica, read-out: MIC100
[11] = Antibacterial activity against multidrug-resistant Pseudomonas aeruginosa CCARM 2095 assessed as reduction in bacterial growth incubated for 24 hrs by CLSI based broth dilution method; format: functional; settings: read-out: MIC100
[12] = Antibacterial activity against multidrug-resistant Pseudomonas aeruginosa CCARM 2109 assessed as reduction in bacterial growth incubated for 24 hrs by CLSI based broth dilution method; format: functional; settings: read-out: MIC100
Candida albicans [13] = experiment: Antifungal activity against Candida albicans KCTC 7965 assessed as reduction in fungal growth incubated for 24 hrs by CLSI based broth dilution method; format: functional; settings: read-out: MIC100
Candida albicans [14] = experiment: Antifungal activity against Candida albicans KCTC 7121 assessed as reduction in fungal growth incubated for 24 hrs by CLSI based broth dilution method; format: functional; settings: read-out: MIC100
Erythrocyte [15] = experiment: Hemolytic activity in sheep RBC assessed as reduction in hemoglobin incubated for 1 hr; format: ADME, cell-based, Ovis aries
Bacteria [16] = experiment: Antibacterial activity against Gram positive bacteria assessed as reduction in bacterial growth incubated for 24 hrs by CLSI based broth dilution method; format: functional; settings: read-out: MIC100
Bacteria [17] = experiment: Antibacterial activity against Gram negative bacteria assessed as reduction in bacterial growth incubated for 24 hrs by CLSI based broth dilution method; format: functional; settings: read-out: MIC100
Saccharomyces cerevisiae = experiment: Antifungal activity against yeast assessed as reduction in fungal growth incubated for 24 hrs by CLSI based broth dilution method; format: functional; settings: read-out: MIC100
[18] = Therapeutic index, ratio of HC10 for sheep RBC to geometric mean MIC for gram positive bacteria; format: toxicity; settings: sheep red blood cells, read-out: TI
[19] = Therapeutic index, ratio of HC10 for sheep RBC to geometric mean MIC for gram negative bacteria; format: toxicity; settings: sheep red blood cells, read-out: TI
[20] = Therapeutic index, ratio of HC10 for sheep RBC to geometric mean MIC for yeast; format: toxicity; settings: sheep red blood cells, read-out: TI
RAW264.7 [21] = experiment: Antiinflammatory activity against mouse RAW264.7 cells assessed as reduction in LPS-induced nitrite level at 5 uM incubated for 24 hrs by Griess reagent based assay relative to control; format: functional
RAW264.7 [22] = experiment: Antiinflammatory activity against mouse RAW264.7 cells assessed as reduction in LPS-induced TNFalpha level at 10 uM incubated for 24 hrs by […] relative to control; format: functional
[23] = Retention time of the compound by RP-HPLC method; format: physicochemical

## CCn1cc(C(=O)O)c(=O)c2ccc(C)nc21
Escherichia coli [1]
  Activity: inactive

## H-LAKKIYRAWKRR-NH2
Erythrocyte [2]
  Activity: Non-Toxic
[3]
  cytotoxicity at 24 h, 20 µM: < 10%
[4]
  cytotoxicity at 24 h, 20 µM: < 10%
Staphylococcus aureus [5]
  MIC: 4 µM
[6]
  MIC: 8 µM
Bacillus subtilis
  MIC: 8 µM
Staphylococcus aureus [7]
  MIC: 32 µM
Staphylococcus aureus [8]
  MIC: 16 µM
Staphylococcus aureus [9]
  MIC: 16 µM
Enterococcus faecium
  MIC: 16 µM
Escherichia coli [10]
  MIC: 8 µM
Pseudomonas aeruginosa
  MIC: 4 µM
Salmonella typhimurium
  MIC: 4 µM
[11]
  MIC: 32 µM
[12]
  MIC: 32 µM
Candida albicans [13]
  MIC: 8 µM
Candida albicans [14]
  MIC: 8 µM
Erythrocyte [15]
  HC10: > 256 µM
Bacteria [16]
  MIC: 14.2 µM
Bacteria [17]
  MIC: 16 µM
Saccharomyces cerevisiae
  MIC: 8 µM
[18]
  selectivity ratio: 36.1
[19]
  selectivity ratio: 32
[20]
  selectivity ratio: 64
RAW264.7 [21]
  inhibition at 5 µM: < 10%
RAW264.7 [22]
  inhibition at 10 µM: < 10%
[23]
  Retention_time: 14.1 min

## H-LAKKIYRAWKRW-NH2
Erythrocyte [2]
  Activity: Non-Toxic
[3]
  cytotoxicity at 24 h, 20 µM: < 10%
[4]
  cytotoxicity at 24 h, 20 µM: < 10%
Staphylococcus aureus [5]
  MIC: 4 µM
[6]
  MIC: 8 µM
Bacillus subtilis
  MIC: 4 µM
Staphylococcus aureus [7]
  MIC: 32 µM
Staphylococcus aureus [8]
  MIC: 16 µM
Staphylococcus aureus [9]
  MIC: 16 µM
Enterococcus faecium
  MIC: 16 µM
Escherichia coli [10]
  MIC: 16 µM
Pseudomonas aeruginosa
  MIC: 4 µM
Salmonella typhimurium
  MIC: 2 µM
[11]
  MIC: 16 µM
[12]
  MIC: 32 µM
Candida albicans [13]
  MIC: 8 µM
Candida albicans [14]
  MIC: 8 µM
Erythrocyte [15]
  HC10: > 256 µM
Bacteria [16]
  MIC: 13.7 µM
Bacteria [17]
  MIC: 14 µM
Saccharomyces cerevisiae
  MIC: 8 µM
[18]
  selectivity ratio: 37.4
[19]
  selectivity ratio: 36.6
[20]
  selectivity ratio: 64
RAW264.7 [21]
  inhibition at 5 µM: < 10%
RAW264.7 [22]
  inhibition at 10 µM: < 10%
[23]
  Retention_time: 17.1 min

## H-LAKKIYRKWKRW-NH2
Erythrocyte [2]
  Activity: Non-Toxic
[3]
  cytotoxicity at 24 h, 20 µM: < 10%
[4]
  cytotoxicity at 24 h, 20 µM: < 10%
Staphylococcus aureus [5]
  MIC: 4 µM
[6]
  MIC: 4 µM
Bacillus subtilis
  MIC: 4 µM
Staphylococcus aureus [7]
  MIC: 16 µM
Staphylococcus aureus [8]
  MIC: 16 µM
Staphylococcus aureus [9]
  MIC: 16 µM
Enterococcus faecium
  MIC: 8 µM
Escherichia coli [10]
  MIC: 8 µM
Pseudomonas aeruginosa
  MIC: 4 µM
Salmonella typhimurium
  MIC: 2 µM
[11]
  MIC: 16 µM
[12]
  MIC: 8 µM
Candida albicans [13]
  MIC: 8 µM
Candida albicans [14]
  MIC: 8 µM
Erythrocyte [15]
  HC10: > 256 µM
Bacteria [16]
  MIC: 9.7 µM
Bacteria [17]
  MIC: 7.6 µM
Saccharomyces cerevisiae
  MIC: 8 µM
[18]
  selectivity ratio: 52.8
[19]
  selectivity ratio: 67.4
[20]
  selectivity ratio: 64
RAW264.7 [21]
  inhibition at 5 µM: < 10%
RAW264.7 [22]
  inhibition at 10 µM: < 10%
[23]
  Retention_time: 15.1 min

## H-QLVPLAIKIYRAWKRR-NH2
Erythrocyte [2]
  Activity: Non-Toxic
[3]
  cytotoxicity at 24 h, 20 µM: 35%
[4]
  cytotoxicity at 24 h, 20 µM: 50%
Staphylococcus aureus [5]
  MIC: 8 µM
[6]
  MIC: 16 µM
Bacillus subtilis
  MIC: 16 µM
Staphylococcus aureus [7]
  MIC: 32 µM
Staphylococcus aureus [8]
  MIC: 16 µM
Staphylococcus aureus [9]
  MIC: 32 µM
Enterococcus faecium
  MIC: 32 µM
Escherichia coli [10]
  MIC: 32 µM
Pseudomonas aeruginosa
  MIC: 16 µM
Salmonella typhimurium
  MIC: 16 µM
[11]
  MIC: 32 µM
[12]
  MIC: 32 µM
Candida albicans [13]
  MIC: 8 µM
Candida albicans [14]
  MIC: 16 µM
Erythrocyte [15]
  HC10: 180 µM
Bacteria [16]
  MIC: 21.7 µM
Bacteria [17]
  MIC: 25.6 µM
Saccharomyces cerevisiae
  MIC: 12 µM
[18]
  selectivity ratio: 8.3
[19]
  selectivity ratio: 7
[20]
  selectivity ratio: 15
[23]
  Retention_time: 24.1 min

## H-VPLAIKIYRAWKRR-NH2
Erythrocyte [2]
  Activity: Non-Toxic
[3]
  cytotoxicity at 24 h, 20 µM: < 10%
[4]
  cytotoxicity at 24 h, 20 µM: < 10%
Staphylococcus aureus [5]
  MIC: 8 µM
[6]
  MIC: 16 µM
Bacillus subtilis
  MIC: 4 µM
Staphylococcus aureus [7]
  MIC: 32 µM
Staphylococcus aureus [8]
  MIC: 32 µM
Staphylococcus aureus [9]
  MIC: 32 µM
Enterococcus faecium
  MIC: 16 µM
Escherichia coli [10]
  MIC: 16 µM
Pseudomonas aeruginosa
  MIC: 8 µM
Salmonella typhimurium
  MIC: 8 µM
[11]
  MIC: 32 µM
[12]
  MIC: 32 µM
Candida albicans [13]
  MIC: 16 µM
Candida albicans [14]
  MIC: 16 µM
Erythrocyte [15]
  HC10: > 256 µM
Bacteria [16]
  MIC: 20 µM
Bacteria [17]
  MIC: 19.2 µM
Saccharomyces cerevisiae
  MIC: 16 µM
[18]
  selectivity ratio: 25.6
[19]
  selectivity ratio: 26.7
[20]
  selectivity ratio: 32
[23]
  Retention_time: 21.7 min
